In patent US7220425B2, “Method for therapy of liver tumors” (Federalnoe Gosudarstvennoe Unitarnoe Predpriyatie …, priority 2000, dated 2007):

Assays:
Format in all cases: in vivo, rats
[1] = Distribution of Teraphtalum with the known regional administration (general trunk of portal vein); conditions: known regional method, 5 mg/kg
Protocol: (§1) The studies were carried out on mongrel rats weighing 150 g, obtained from the N. V. Blokhin ONTs breeder and contained in the vivarium of that center.
Teraphtalum (TP) was administered once into the general trunk of the portal vein in a dose of 5 mg/kg (this was 1 mg of TP for a rat weighing 200 g). Accumulation of the preparation in the liver, lungs and its level in blood plasma were evaluated by the spectrophotometric method 5, 35 and 240 minutes after the administration.

[2] = Distribution of Teraphtalum with the proposed regional method (branch of portal vein of target lobe with occlusion); conditions: for Content of Teraphtalum: proposed method, 0.3 mg (0.6 ml, 0.01% solution), healthy rats
Protocol: (§2) Practically speaking, the method is carried out in the following manner. A median laparotomy is conducted, afferent (a branch of the portal vein and hepatic artery) and efferent (a branch of the hepatic vein) vessels of the target lobe of the liver are isolated. They are taken on tourniquets. A puncture of the branch of the portal vein is made, the preparation is introduced therein, simultaneously stopping the flow of blood: the blood inflow—through branches of the portal vein (proximal to the place of puncture) and the hepatic artery, outflow—through a branch of the hepatic vein. Restoration of the blood flow is accomplished by removing clamps from the vessels 5–15 minutes after administration of the preparation.
as §1
(§3) Teraphtalum in a dose of 60 or 300 μg per rat in the form of 0.6 ml of a 0.01 and 0.05% solution was administered into a branch of the portal vein of a target lobe of the liver.
Accumulation of the preparation in the target lobe (subjected to occlusion), in the intact lobe of the liver (not subjected to occlusion) and also in the blood plasma were studied 5, 35 and 240 minutes after administration of the preparation by the proposed method.

[3] = Effect of length of occlusion of afferent and abducent vessels on accumulation of Teraphtalum; conditions: for Content of Teraphtalum: 35 min after administration
Protocol: as §2, §3
The results of a study of the effect of the length of the period of occlusion of the afferent and abducent vessels of the target lobe of the liver on the accumulation of TP therein are presented in Table 3.

Content of Teraphtalum ([1]; liver, 5 min after administration): 15 μg/g of untreated tissue
Content of Teraphtalum ([1]; liver, 35 min after administration): 60 μg/g of untreated tissue
Content of Teraphtalum ([1]; liver, 240 min after administration): 51 μg/g of untreated tissue
Content of Teraphtalum ([1]; lungs, 5 min after administration): 46 μg/g of untreated tissue
Content of Teraphtalum ([1]; lungs, 35 min after administration): 28 μg/g of untreated tissue
Content of Teraphtalum ([1]; lungs, 240 min after administration): 57 μg/g of untreated tissue
Content of Teraphtalum ([1]; plasma, 5 min after administration): 92.4 μg/g of untreated tissue
Content of Teraphtalum ([1]; plasma, 35 min after administration): 39.6 μg/g of untreated tissue
Content of Teraphtalum ([1]; plasma, 240 min after administration): 14.4 μg/g of untreated tissue
Concentration of TP in target lobe of liver, proposed method versus known regional method ([2]; first minutes after administration, dose in proposed method 16.5 times less): 2 times higher
Content of Teraphtalum ([2]; intact lobe of liver, 5 min): 7 μg/g of untreated tissue
Content of Teraphtalum ([2]; intact lobe of liver, 35 min): 5 μg/g of untreated tissue
Content of Teraphtalum ([2]; intact lobe of liver, 240 min): 9 μg/g of untreated tissue
Content of Teraphtalum ([2]; plasma, 5 min): 3 μg/g of untreated tissue
Content of Teraphtalum ([2]; target lobe of liver, 5 min): 30 μg/g of untreated tissue
Content of Teraphtalum ([2]; target lobe of liver, 35 min): 33 μg/g of untreated tissue
Content of Teraphtalum ([2]; target lobe of liver, 240 min): 48 μg/g of untreated tissue
Content of Teraphtalum ([3]; blood plasma, control = selective administration without occlusion): 6 µg/g
Content of Teraphtalum ([3]; blood plasma, occlusion 5 min, 0.3 mg (0.6 ml of 0.01% solution), proposed method): 5 µg/g
Content of Teraphtalum ([3]; blood plasma, occlusion 15 min, 0.3 mg (0.6 ml of 0.01% solution), proposed method): 7 µg/g
Content of TP ([3]; intact lobe of liver as worded in text, without occlusion (control), 30 minutes after administration): 20 µg/g
Content of Teraphtalum ([3]; intact lobe of liver, occlusion 5 min, 0.3 mg (0.6 ml of 0.01% solution), proposed method): 7 µg/g
Content of Teraphtalum ([3]; intact lobe of liver, occlusion 15 min, 0.3 mg (0.6 ml of 0.01% solution), proposed method): 6 µg/g
Content of Teraphtalum ([3]; intact lobe, control = selective administration without occlusion): 17 µg/g
Content of Teraphtalum ([3]; target lobe of liver, occlusion 5 min, 0.3 mg (0.6 ml of 0.01% solution), proposed method): 35 µg/g
Content of Teraphtalum ([3]; target lobe of liver, occlusion 15 min, 0.3 mg (0.6 ml of 0.01% solution), proposed method): 35 µg/g
Content of Teraphtalum ([3]; target lobe, control = selective administration without occlusion): 20 µg/g
Content of TP ([3]; that (target) lobe as worded in text, without occlusion (control), 30 minutes after administration): 17 µg/g
Level of TP in the plasma ([3]; without occlusion (control), 30 minutes after administration): 6 μg/g of untreated tissue
Structure (SMILES): O=C(O)c1cc2c(cc1C(=O)O)C1=Nc3c4cc(C(=O)O)c(C(=O)O)cc4c4[n]3[Co][n]3c(c5cc(C(=O)O)c(C(=O)O)cc5c3=NC3=NC(=N4)c4cc(C(=O)O)c(C(=O)O)cc43)=NC2=N1 [Teraphtalum, cobalt octacarboxy phthalocyanine]
